Results as given in article PMC9327782, “Benzoxazole derivatives as new VEGFR-2 inhibitors and apoptosis inducers: design, synthesis, in silico studies, and antiproliferative evaluation” (Journal of Enzyme Inhibition and Medicinal Chemistry, 2022).
Where two headings read alike, the source gives them in different places.

Experiments:
[1] = test system: MCF-7 cell line; assay: In vitro anti-proliferative MTT assay, MCF-7; type: cell-based, human
Excerpt: (§1) The cytotoxicity results were obtained as median growth inhibitory concentration (IC50).
(§2) MTT assay protocol. This method was applied in accordance with the comprehensive description in Supplementary data. […]
(§3) 5 Raw data of cytotoxity and VEGFR -2 assay […]
(§4) Experimental of biological testing
(§5) 1. In vitro anti-proliferative activity
(§6) MTT assay protocol was applied to assess the anti-proliferative activity of the synthesized compounds. Two human cancer cell lines (MCF-7 and HepG-2) and one normal cell line (WI-38) were used in this test. At first, the cell lines were cultured in RPMI -1640 medium with 10% fetal bovine serum. Antibiotics (100 units/ml penicillin and100 µg/ml streptomycin ) were added at 37 °C in a 5% CO2 incubator. The cell lines were seeded in a 96-well plate at a density of 1.0 x 10^4 cells / well at 37 °C for 24 h under 5% CO2. After incubation, the cells were treated with different […]
(§7) concentration of the synthesized compounds and incubated for 24 h. After 24 h of drug treatment, 20 µl of MTT solution at 5mg/ml was added and incubated for 4 h. Dimethyl sulfoxide (DMSO) in volume of 100 µl was added into each well to dissolve the purple formazan formed. The colorimetric assay was measured and recorded at absorbance of 570 nm using a plate reader (EXL 800, USA). The relative cell viability in percentage was calculated as (A570 of treated samples/A570 of untreated sample) X 100. […]

[2] = test system: HepG2 cell line; assay: In vitro anti-proliferative MTT assay, HepG2; type: cell-based, human
Excerpt: as §1, §2, §3, §4, §5, §6, §7

[3] = biological target: T1, VEGFR-2 (Homo sapiens, UniProt P35968); assay: In vitro VEGFR-2 kinase assay (ELISA kit); type: biochemical; details: for IC50: ELISA kit; for HillSlope best-fit value, VEGFR-2 / LogIC50 best-fit value, VEGFR-2: supplement raw data, curve fit
T1 construct: purchased
Procedure: The assay was applied by ELISA kits in accordance with the comprehensive description in[18]^,[33] as described in Supplementary data. […]
2. In vitro VEGFR-2 kinase assay
All the synthesized compounds were tested for its inhibitory activity against VEGFR-2. Human VEGFR-2 ELISA kit (Enzyme-Linked Immunosorbent Assay) was utilized in this test. At first, specific antibody for VEGFR-2 was seeded on a 96-well plate and 100 μL of the standard solution or the tested compound was added, all were incubated at room temperature for 2.5 h. Then washed, 100 μL of the prepared biotin antibody was added, then incubated at room temperature for additional 1 h. and washed. Then, 100 μL of streptavidin solution was added and incubated for 45 min. at room temperature. Washed again, 100 μL of TMB Substrate reagent was added and incubated for 30 min. at room temperature. 50 μL of the stop solution was added, then read at 450 […]
nm immediately. […]

[4] = test system: WI-38 cell line; assay: In vitro cytotoxicity against normal cell line (MTT); type: cell-based, human; set-up: LogIC50 best-fit value, WI-38: unit not given here; details: for IC50: WI-38, normal human lung cell line, MTT; for HillSlope best-fit value, WI-38 / LogIC50 best-fit value, WI-38: supplement raw data, dose-response curve fit
Excerpt: […]. Such values were very high in comparison to the corresponding values on cancer cell lines, which reflect high safety profile of the tested candidates towards normal cell lines.
as §2, §3, §4, §5, §6, §7

[5] = Homo sapiens, MCF7, 24 h, MTT, 24 h treatment, mean of three experiments, read-out: In vitro IC50 MCF-7
[6] = Homo sapiens, MCF7, supplement raw data, dose-response curve fit, read-out: LogIC50 best-fit value, MCF-7 (converted)
[7] = Homo sapiens, HepG2, 24 h, MTT, 24 h treatment, mean of three experiments, read-out: In vitro IC50 HepG2
[8] = Homo sapiens, HepG2, supplement raw data, dose-response curve fit, read-out: LogIC50 best-fit value, HepG2 (converted)
[9] = Homo sapiens, HepG2, supplement raw data, dose-response curve fit, read-out: IC50 best-fit value, HepG2

T1 sequence (P35968 20-1356): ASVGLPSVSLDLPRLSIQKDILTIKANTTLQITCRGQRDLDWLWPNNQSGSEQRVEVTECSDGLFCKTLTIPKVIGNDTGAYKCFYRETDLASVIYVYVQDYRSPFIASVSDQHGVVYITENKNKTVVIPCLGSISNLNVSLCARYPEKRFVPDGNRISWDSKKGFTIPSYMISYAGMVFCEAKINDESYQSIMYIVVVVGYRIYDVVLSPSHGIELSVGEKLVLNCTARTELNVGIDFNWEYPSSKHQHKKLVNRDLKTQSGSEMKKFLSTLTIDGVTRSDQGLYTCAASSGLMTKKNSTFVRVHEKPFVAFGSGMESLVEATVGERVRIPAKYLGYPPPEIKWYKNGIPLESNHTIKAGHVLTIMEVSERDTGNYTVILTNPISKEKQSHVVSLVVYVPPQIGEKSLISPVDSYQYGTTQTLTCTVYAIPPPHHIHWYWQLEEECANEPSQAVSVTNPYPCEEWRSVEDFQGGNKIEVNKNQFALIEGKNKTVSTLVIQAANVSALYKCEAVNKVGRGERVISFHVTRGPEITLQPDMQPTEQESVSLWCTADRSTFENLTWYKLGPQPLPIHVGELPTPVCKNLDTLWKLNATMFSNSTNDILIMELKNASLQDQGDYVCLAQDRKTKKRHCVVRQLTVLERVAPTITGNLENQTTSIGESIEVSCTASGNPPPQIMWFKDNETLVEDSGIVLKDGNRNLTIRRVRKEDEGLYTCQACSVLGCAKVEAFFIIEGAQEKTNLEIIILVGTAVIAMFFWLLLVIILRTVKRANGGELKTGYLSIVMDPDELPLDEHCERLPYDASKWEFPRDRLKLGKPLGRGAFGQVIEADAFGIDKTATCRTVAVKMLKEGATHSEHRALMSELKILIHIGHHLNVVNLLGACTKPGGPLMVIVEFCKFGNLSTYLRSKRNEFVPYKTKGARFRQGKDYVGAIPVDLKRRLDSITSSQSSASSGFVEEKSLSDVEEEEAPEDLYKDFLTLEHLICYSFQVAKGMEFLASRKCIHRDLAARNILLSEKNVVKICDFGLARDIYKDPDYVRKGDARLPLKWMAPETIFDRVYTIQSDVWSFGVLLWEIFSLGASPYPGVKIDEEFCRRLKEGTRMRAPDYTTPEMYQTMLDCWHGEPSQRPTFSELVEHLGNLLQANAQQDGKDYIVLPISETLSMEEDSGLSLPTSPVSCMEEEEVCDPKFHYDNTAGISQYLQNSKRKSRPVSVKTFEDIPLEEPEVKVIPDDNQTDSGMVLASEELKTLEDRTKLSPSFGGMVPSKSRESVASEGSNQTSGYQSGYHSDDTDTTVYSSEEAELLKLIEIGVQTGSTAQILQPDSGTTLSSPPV

| SMILES | IC50 [1, 5] [µM] | IC50 [1, 6] [µM] | IC50 [2, 7] [µM] | IC50 [2, 8] [µM] | IC50 [3] [µM] | HillSlope best-fit value, VEGFR-2 [3] | LogIC50 best-fit value, VEGFR-2 [3] | IC50 ([1]; MTT, 24 h treatment, mean of three experiments, read-out: In vitro IC50 MCF-7) [µM] | IC50 ([2]; MTT, 24 h treatment, mean of three experiments, read-out: In vitro IC50 HepG2) [µM] | IC50 [2, 9] [µM] | IC50 ([1]; Homo sapiens, MCF7, supplement raw data, dose-response curve fit, read-out: IC50 best-fit value, MCF-7) [µM] | IC50 [4] [µM] | HillSlope best-fit value, WI-38 [4] | LogIC50 best-fit value, WI-38 [4] |
| --- | --- | --- | --- | --- | --- | --- | --- | --- | --- | --- | --- | --- | --- | --- |
| O=C(CSc1nc2ccccc2o1)Nc1ccc(C(=O)NC2CCCC2)cc1 [Compound 12a, 4–(2-(Benzo[d]oxazol-2-ylthio)acetamido)-N-cyclopentylbenzamide] | 33.3 ± 2.9 | 33.3 | 38.8 ± 3.2 | 38.8 |  |  |  |  |  |  |  |  |  |  |
| O=C(CSc1nc2cc(Cl)ccc2o1)Nc1ccc(C(=O)NC2CCCC2)cc1 [Compound 12b, 4–(2-((5-Chlorobenzo[d]oxazol-2-yl)thio)acetamido)-N-cyclopentylbenzamide] | 77 ± 7.3 | 77.1 | 64.2 ± 6.1 | 64.1 |  |  |  |  |  |  |  |  |  |  |
| Cc1ccc2oc(SCC(=O)Nc3ccc(C(=O)NC4CCCC4)cc3)nc2c1 [Compound 12c, N-Cyclopentyl-4–(2-((5-methylbenzo[d]oxazol-2-yl)thio)acetamido)benzamide] | 36.7 ± 3.3 | 36.7 | 74.3 ± 6.8 | 74.3 |  |  |  |  |  |  |  |  |  |  |
| CC(C)(C)NC(=O)c1ccc(NC(=O)CSc2nc3ccccc3o2)cc1 [Compound 12d, 4–(2-(Benzo[d]oxazol-2-ylthio)acetamido)-N-(tert-butyl)benzamide] | 44.1 ± 3.8 | 44.1 | 23.6 ± 2.1 | 23.6 | 0.195 | -0.4166 | 2.289 Log (nM) |  |  |  |  | 99.4 | -0.3751 | 1.997 |
| CC(C)(C)NC(=O)c1ccc(NC(=O)CSc2nc3cc(Cl)ccc3o2)cc1 [Compound 12e, N-(Tert-butyl)-4–(2-((5-chlorobenzo[d]oxazol-2-yl)thio)acetamido)benzamide] | 62.3 ± 5.8 | 62.2 | 71.6 ± 6.7 | 71.6 |  |  |  |  |  |  |  |  |  |  |
| Cc1ccc2oc(SCC(=O)Nc3ccc(C(=O)NC(C)(C)C)cc3)nc2c1 [Compound 12f, N-(Tert-butyl)-4–(2-((5-methylbenzo[d]oxazol-2-yl)thio)acetamido)benzamide] | 22.5 ± 1.8 | 22.5 | 37 ± 3.4 | 37 | 0.265 | -0.3283 | 2.423 Log (nM) |  |  |  |  |  |  |  |
| COc1cccc(NC(=O)c2ccc(NC(=O)CSc3nc4ccccc4o3)cc2)c1 [Compound 12g, 4–(2-(Benzo[d]oxazol-2-ylthio)acetamido)-N-(3-methoxyphenyl)benzamide] | 53 ± 5.1 | 53 | 36.7 ± 2.9 | 36.6 |  |  |  |  |  |  |  |  |  |  |
| COc1cccc(NC(=O)c2ccc(NC(=O)CSc3nc4cc(Cl)ccc4o3)cc2)c1 [Compound 12h, 4–(2-((5-Chlorobenzo[d]oxazol-2-yl)thio)acetamido)-N-(3-methoxyphenyl)benzamide] | 85.6 ± 8.2 | 85.7 | 102 ± 8.5 | 102 |  |  |  |  |  |  |  |  |  |  |
| COc1cccc(NC(=O)c2ccc(NC(=O)CSc3nc4cc(C)ccc4o3)cc2)c1 [Compound 12i, N-(3-Methoxyphenyl)-4–(2-((5-methylbenzo[d]oxazol-2-yl)thio)acetamido)benzamide] | 28 ± 2.1 | 28 | 27.3 ± 2.2 | 27.3 | 0.155 | -0.3818 | 2.190 Log (nM) |  |  |  |  | 76.8 | -0.4944 | 1.885 |

The next lines start with results.

| IC50 [1, 5] [µM] | IC50 [1, 6] [µM] | IC50 [2, 7] [µM] | IC50 [2, 8] [µM] | IC50 [3] [µM] | HillSlope best-fit value, VEGFR-2 [3] | LogIC50 best-fit value, VEGFR-2 [3] | IC50 ([1]; MTT, 24 h treatment, mean of three experiments, read-out: In vitro IC50 MCF-7) [µM] | IC50 ([2]; MTT, 24 h treatment, mean of three experiments, read-out: In vitro IC50 HepG2) [µM] | IC50 [2, 9] [µM] | IC50 ([1]; Homo sapiens, MCF7, supplement raw data, dose-response curve fit, read-out: IC50 best-fit value, MCF-7) [µM] | SMILES | IC50 [4] [µM] | HillSlope best-fit value, WI-38 [4] | LogIC50 best-fit value, WI-38 [4] |
| --- | --- | --- | --- | --- | --- | --- | --- | --- | --- | --- | --- | --- | --- | --- |
| 50.9 | 33.6 | 33.6 | 50.9 |  |  |  | 33.6 ± 2.8 | 50.9 ± 4.6 |  |  | O=C(CSc1nc2ccccc2o1)Nc1ccc(C(=O)Nc2cccc(Cl)c2)cc1 [Compound 12j, 4–(2-(Benzo[d]oxazol-2-ylthio)acetamido)-N-(3-chlorophenyl)benzamide] |  |  |  |
| 86.6 ± 7.8 | 86.7 | 28.4 ± 2.5 | 28.4 |  |  |  |  |  |  |  | O=C(CSc1nc2cc(Cl)ccc2o1)Nc1ccc(C(=O)Nc2cccc(Cl)c2)cc1 [Compound 12k, 4–(2-((5-Chlorobenzo[d]oxazol-2-yl)thio)acetamido)-N-(3-chlorophenyl)benzamide] |  |  |  |
|  | 32.4 |  | 25.5 | 0.268 | -0.5089 | 2.428 Log (nM) |  |  |  |  | O=C(CSc1nc2ccccc2o1)Nc1ccc(C(=O)NNC(=O)c2cccc(Cl)c2)cc1 [Compound 13a, 2-(Benzo[d]oxazol-2-ylthio)-N-(4–(2-(3-chlorobenzoyl)hydrazine-1-carbonyl)phenyl)-acetamide] |  |  |  |
| 26.3 ± 2.2 | 26.3 | 42.1 ± 3.8 | 42.1 |  |  |  |  |  |  |  | O=C(CSc1nc2cc(Cl)ccc2o1)Nc1ccc(C(=O)NNC(=O)c2cccc(Cl)c2)cc1 [Compound 13b, 2-((5-Chlorobenzo[d]oxazol-2-yl)thio)-N-(4–(2-(3-chlorobenzoyl)hydrazine-1-carbonyl)-phenyl)acetamide] |  |  |  |
| 53.1 ± 3.7 | 53.1 | 24.2 ± 2.1 | 24.4 |  |  |  |  |  | 24.4 |  | Cc1ccc2oc(SCC(=O)Nc3ccc(C(=O)NNC(=O)c4cccc(Cl)c4)cc3)nc2c1 [Compound 13c, N-(4–(2-(3-Chlorobenzoyl)hydrazine-1-carbonyl)phenyl)-2-((5-methylbenzo[d]oxazol-2-yl)thio)acetamide] |  |  |  |
| 6.46 ± 0.3 | 6.46 | 5.57 ± 0.4 | 5.57 |  |  |  |  |  | 5.57 | 6.46 | CNC(=O)c1cc(Oc2ccc(NC(=O)Nc3ccc(Cl)c(C(F)(F)F)c3)cc2)ccn1 [Sorafenib, sorafenib, reference compound] | 22.1 | -0.4247 | 1.344 |
